Assay results: patent US20230059022A1, “PRUSSIAN BLUE ZnO CARBON NANOTUBE COMPOSITE FOR MEASURING HYDROGEN PEROXIDE IN CANCER CELLS” (Middle Tennessee State University, priority 2020, published 2023)
“And” between values parts separate entries of the source, which are not always exact repeats. Equal values may be shown once.

Key:
Format in all cases: cell-based
BT20 cancer cells [1] = assay: SAM CA (chronoamperometry with standard addition) of hydrogen peroxide release from BT20 cells
Description: (§1) BT20 and 4T1 cells were purchased from American Type Culture Collection (ATCC). Both cell lines were maintained in RPMI-1640 medium (Sigma-Aldrich) with 10% Fetal Bovine Serum (FBS) (Gibco) at 37° C. with 5% CO2. The medium was renewed every two days. Well-grown BT20 cells in logarithmic phase were digested by 0.25% (w/v) Trypsin (Fisher Scientific) from the original culture flask and mixed well before being seeded on a 96-well cell culture plate (Denville Scientific) with a density of 5×10^4 cells/mL and incubated with the same full medium at 37° C. with 5% CO2 for 24 h. Cells were then treated with 100 μL of 50 μM doxonibicin (Dox) (Sigma-Aldrich). […]
(§2) Electrochemical activity of the PB/ZnO/COOH-MWNTs was studied using cyclic voltammetry (CV) and chronoamperometry (CA) using AfterMath™ software ver 1.2.5658 and a WaveNano™ potentiostat (Pine Research Instrument Co., Raleigh, N.C., USA). […] The concentrations of hydrogen peroxide in BT20 cancer cells were measured chronoamperometrically, employing the standard addition method (CA SAM). Samples were measured by standard additions of hydrogen peroxide in increasing order to create the calibration curve needed to determine the unknown hydrogen peroxide concentration in the cancer cells. BT20 and 4T1 cancer cells were cultured and the concentration of hydrogen peroxide in the cancer cells analyzed using this sensor. […]

BT20 cancer cells [2] = assay: ELISA (Amplex Red hydrogen peroxide release assay) of BT20 cells; conditions: single replicate wells
Description: BT20 and 4T1 cells were purchased from American Type Culture Collection (ATCC). Both cell lines were maintained in RPMI-1640 medium (Sigma-Aldrich) with 10% Fetal Bovine Serum (FBS) (Gibco) at 37° C. with 5% CO2. The medium was renewed every two days. Well-grown BT20 cells in logarithmic phase were digested by 0.25% (w/v) Trypsin (Fisher Scientific) from the original culture flask and mixed well before being seeded on a 96-well cell culture plate (Denville Scientific) with a density of 5×10^4 cells/mL and incubated with the same full medium at 37° C. with 5% CO2 for 24 h. Cells were then treated with 100 μL of 50 μM doxonibicin (Dox) (Sigma-Aldrich). Cells treated with 100 μL of vehicle (RPMI-1640 medium) only served as a control. The Dox group and control group each had eight replicate wells. After 24 h of incubation, 50 μL of the medium was collected from each well and proceeded for hydrogen peroxide determination.
The hydrogen peroxide release assay was carried on using Amplex™ Red Hydrogen Peroxide/Peroxidase Assay Kit (Invitrogen) according to the instruction. […] After incubation at room temperature in the dark for 30 min, the absorbance of each well at 560 nm of was measured with a CLARIOstar™ microplate reader (BMG Labtech). The concentration of hydrogen peroxide in the sample was calculated according to the standard curve. […]

4T1 cancer cells [3] = assay: SAM CA (chronoamperometry with standard addition) of hydrogen peroxide release from 4T1 cells
Description: as §1, §2

4T1 cancer cells [4] = assay: ELISA (Amplex Red hydrogen peroxide release assay) of 4T1 cells

SMILES: COc1cccc2c1C(=O)c1c(O)c3c(c(O)c1C2=O)C[C@@](O)(C(=O)CO)C[C@@H]3O[C@H]1C[C@H](N)[C@H](O)[C@H](C)O1 [Dox, doxonibicin]
- hydrogen peroxide concentration in Dox-treated BT20 cancer cells (mean) (BT20 cancer cells [1]; 48 h Dox-treated BT20 cells, CA SAM, n=6): 16.0 ± 1.4 µM
- H2O2 from Dox-treated BT20 cancer cells, SAM CA (BT20 cancer cells [1]; BT20 cells, Dox treated, single replicates, SAM CA): 15.1 μM and 15.88 μM (2×) and 17.47 μM (2×) and 14.42 μM
- H2O2 from Dox-treated BT20 cancer cells, ELISA results (BT20 cancer cells [2]): 5.0152 μM and 5.3182 μM (2×) and 5.6212 μM (2×) and 6.0758 μM and 6.9848 μM and 4.4091 μM
- H2O2 from Dox treated 4T1 cancer cells, SAM CA (4T1 cancer cells [3]; 4T1 cells, Dox treated, single replicates, SAM CA): 14 µM and 15.6 µM and 16 µM
- concentration of hydrogen peroxide released in Dox-treated 4T1 cancer cells (mean) (4T1 cancer cells [3]; Dox-treated 4T1 cells, CA SAM, n=3, p=0.0182 vs untreated): 15.2 µM
- H2O2 from Dox treated 4T1 cancer cells, ELISA results (4T1 cancer cells [4]; Dox treated, single replicate wells): 1.9605 µM and 2.0921 µM and 2.4868 µM and 2.75 µM and 2.8816 µM and 2.6184 µM and 3.0132 µM and 1.8289 µM
- difference in hydrogen peroxide between Dox-treated and untreated 4T1 cells by ELISA (4T1 cancer cells [4]; p=0.8932): no statistical difference
